Experiment: physchem
Settings: buffer
Description: Aqueous solubility of compound

## O=C(CN1C(=O)COc2ccc(Cl)cc21)NC1(C(=O)O)CCCCC1
  solubility kinetic: ≥ 112 µg/mL

## O=C(CN1C(=O)COc2ccc(C(F)(F)F)cc21)NC1(C(=O)O)CCCCC1
  solubility kinetic: ≥ 172 µg/mL

## O=C(Cn1c(=O)oc2ccc(-c3ccccc3)cc21)NC1(C(=O)O)CCCCC1
  solubility kinetic: ≥ 157 µg/mL

— ChEMBL document CHEMBL6074712, “Optimization of Potent and Selective Cyclohexyl Acid ERAP1 Inhibitors Using Structure- and Property-Based Drug Design” (ACS Med Chem Lett, 2024)
